According to US20260262643A1, “HERBICIDAL BENZOXAZINES” (FMC CORPORATION, priority 2022, published 2026):

Experiments:
[1] = test system: kochia; assay: Test C postemergence; type: in vivo, Bassia scoparia; details: 10 days, 0 to 100 scale (0 no effect, 100 complete control)
Method in brief: (§1)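 Visual injury score, 0–100 (100 = complete control), taken 10 days after treatment relative to untreated controls. Pre: directed spray onto soil over sown seeds. Post: foliar spray at one- to two-leaf stage, 2–10 cm. Solvent/surfactant formulation; loam–sand soil; greenhouse.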

[2] = test system: barnyardgrass; assay: Test C preemergence; type: in vivo, Echinochloa crusgalli
Method in brief: as §1

[3] = test system: corn; assay: Test C preemergence; type: in vivo, Zea mays
Method in brief: as §1

[4] = test system: soybean; assay: Test C postemergence; type: in vivo, Glycine max; details: 10 days, 0 to 100 scale (0 no effect, 100 complete control)
Method in brief: as §1

[5] = test system: wheat; assay: Test C postemergence; type: in vivo, Triticum aestivum; details: 10 days, 0 to 100 scale (0 no effect, 100 complete control)
Method in brief: as §1

[6] = test system: kochia; assay: Test C preemergence; type: in vivo, Bassia scoparia
Method in brief: as §1

[7] = test system: blackgrass; assay: Test C preemergence; type: in vivo, Alopecurus myosuroides
Method in brief: as §1

[8] = test system: barnyardgrass; assay: Test D flooded paddy test; type: in vivo, Echinochloa crus-galli; details: 250 g ai/ha, applied to paddy water, visual rating after 13 to 14 days, scale 0 to 100 (0 no effect, 100 complete control)
Method in brief: (§2)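 Visual ratings from 0, meaning no effect, to 100, meaning complete control, were assigned against untreated controls 13 to 14 days after compounds were added to the floodwater of pots kept 3 cm deep, with plants at the 2-leaf stage.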

[9] = test system: ryegrass, Italian; assay: Test C preemergence; type: in vivo, Lolium multiflorum
Method in brief: as §1

[10] = test system: corn; assay: Test C postemergence; type: in vivo, Zea mays; details: 10 days, 0 to 100 scale (0 no effect, 100 complete control)
Method in brief: as §1

[11] = test system: ryegrass, Italian; assay: Test C postemergence; type: in vivo, Lolium multiflorum; details: 10 days, 0 to 100 scale (0 no effect, 100 complete control)
Method in brief: as §1

[12] = test system: rice; assay: Test D flooded paddy test; type: in vivo, Oryza sativa; details: 250 g ai/ha, applied to paddy water, visual rating after 13 to 14 days, scale 0 to 100 (0 no effect, 100 complete control)
Method in brief: as §2

[13] = test system: sedge, umbrella; assay: Test D flooded paddy test; type: in vivo, Cyperus difformis; details: 250 g ai/ha, applied to paddy water, visual rating after 13 to 14 days, scale 0 to 100 (0 no effect, 100 complete control)
Method in brief: as §2

[14] = test system: wheat; assay: Test C preemergence; type: in vivo, Triticum aestivum
Method in brief: as §1

[15] = test system: soybean; assay: Test C preemergence; type: in vivo, Glycine max
Method in brief: as §1

[16] = test system: green foxtail; assay: Test C postemergence; type: in vivo, Setaria viridis; details: 10 days, 0 to 100 scale (0 no effect, 100 complete control)
Method in brief: as §1

[17] = test system: pigweed, palmer; assay: Test C postemergence; type: in vivo, Amaranthus palmeri; details: 10 days, 0 to 100 scale (0 no effect, 100 complete control)
Method in brief: as §1

[18] = test system: barnyardgrass; assay: Test C postemergence; type: in vivo, Echinochloa crusgalli; details: 10 days, 0 to 100 scale (0 no effect, 100 complete control)
Method in brief: as §1

[19] = test system: green foxtail; assay: Test C preemergence; type: in vivo, Setaria viridis
Method in brief: as §1

[20] = test system: oat, wild; assay: Test C postemergence; type: in vivo, Avena fatua; details: 10 days, 0 to 100 scale (0 no effect, 100 complete control)
Method in brief: as §1

[21] = test system: blackgrass; assay: Test C postemergence; type: in vivo, Alopecurus myosuroides; details: 10 days, 0 to 100 scale (0 no effect, 100 complete control)
Method in brief: as §1

[22] = test system: horseweed; assay: Test C postemergence; type: in vivo, Erigeron canadensis; details: 10 days, 0 to 100 scale (0 no effect, 100 complete control)
Method in brief: as §1

[23] = test system: galium; assay: Test C postemergence; type: in vivo, Galium aparine; details: 10 days, 0 to 100 scale (0 no effect, 100 complete control)
Method in brief: as §1

[24] = test system: ducksalad; assay: Test D flooded paddy test; type: in vivo, Heteranthera limosa; details: 250 g ai/ha, applied to paddy water, visual rating after 13 to 14 days, scale 0 to 100 (0 no effect, 100 complete control)
Method in brief: as §2

[25] = test system: oat, wild; assay: Test C preemergence; type: in vivo, Avena fatua
Method in brief: as §1

[26] = test system: ragweed; assay: Test C preemergence; type: in vivo, Ambrosia artemisiifolia
Method in brief: as §1

[27] = test system: ragweed; assay: Test C postemergence; type: in vivo, Ambrosia artemisiifolia; details: 10 days, 0 to 100 scale (0 no effect, 100 complete control)
Method in brief: as §1

[28] = test system: pigweed, palmer; assay: Test C preemergence; type: in vivo, Amaranthus palmeri
Method in brief: as §1

[29] = 500 g ai/ha, preemergence, 0 to 100 scale (0 no effect, 100 complete control)
[30] = Preemergence, 125 g ai/ha, 0 to 100 scale, 0 no effect, 100 complete control

Cc1cccc2c1O[C@@H](C)CN2C(=O)c1cc(-n2cnc(C(C)C)n2)cc2c1CCO2 [Compound 392]
60: Plant response rating, Wheat ([5]; 500 g ai/ha, postemergence) | Wheat plant response rating [14, 29] | Plant response rating, Foxtail, Green ([16]; Postemergence, 125 g ai/ha) | Plant response rating, Horseweed ([22]; Postemergence, 125 g ai/ha)
90: Plant response rating, Kochia ([1]; 500 g ai/ha, postemergence) | Plant response rating, Kochia ([1]; Postemergence, 125 g ai/ha) | Plant response rating, Barnyardgrass [2, 30] | Kochia plant response rating [6, 29] | Plant response rating, Kochia [6, 30] | Plant response rating, Ryegrass, Italian [9, 30] | Plant response rating, Soybean [15, 30] | Plant response rating, Foxtail, Green ([16]; 500 g ai/ha, postemergence) | Plant response rating, Oat, Wild ([20]; 500 g ai/ha, postemergence) | Plant response rating, Blackgrass ([21]; 500 g ai/ha, postemergence) | Plant response rating, Horseweed ([22]; 500 g ai/ha, postemergence) | Oat, Wild plant response rating [25, 29] | Plant response rating, Ragweed ([27]; 500 g ai/ha, postemergence) | Plant response rating, Ragweed ([27]; Postemergence, 125 g ai/ha)
70: Corn plant response rating [3, 29] | Plant response rating, Blackgrass [7, 30] | Plant response rating, Oat, Wild ([20]; Postemergence, 125 g ai/ha)
20: Plant response rating, Wheat [14, 30]
0: Plant response rating, Rice (Flood) [12]
40: Plant response rating, Barnyardgrass (Flood) [8]
30: Plant response rating, Corn [3, 30] | Plant response rating, Corn ([10]; Postemergence, 125 g ai/ha)
50: Plant response rating, Wheat ([5]; Postemergence, 125 g ai/ha) | Plant response rating, Barnyardgrass ([18]; Postemergence, 125 g ai/ha) | Plant response rating, Oat, Wild [25, 30]
80: Blackgrass plant response rating [7, 29] | Plant response rating, Corn ([10]; 500 g ai/ha, postemergence) | Plant response rating, Ryegrass, Italian ([11]; Postemergence, 125 g ai/ha) | Plant response rating, Barnyardgrass ([18]; 500 g ai/ha, postemergence) | Plant response rating, Blackgrass ([21]; Postemergence, 125 g ai/ha) | Ragweed plant response rating [26, 29] | Plant response rating, Ragweed [26, 30]
100: Barnyardgrass plant response rating [2, 29] | Plant response rating, Soybean ([4]; 500 g ai/ha, postemergence) | Plant response rating, Soybean ([4]; Postemergence, 125 g ai/ha) | Ryegrass, Italian plant response rating [9, 29] | Plant response rating, Ryegrass, Italian ([11]; 500 g ai/ha, postemergence) | Soybean plant response rating [15, 29] | Plant response rating, Pigweed, Palmer ([17]; 500 g ai/ha, postemergence) | Plant response rating, Pigweed, Palmer ([17]; Postemergence, 125 g ai/ha) | Foxtail, Green plant response rating [19, 29] | Plant response rating, Foxtail, Green [19, 30] | Plant response rating, Galium ([23]; 500 g ai/ha, postemergence) | Plant response rating, Galium ([23]; Postemergence, 125 g ai/ha) | Pigweed, Palmer plant response rating [28, 29] | Plant response rating, Pigweed, Palmer [28, 30]
65: Plant response rating, Sedge, Umbrella (Flood) [13] | Plant response rating, Ducksalad (Flood) [24]
